{"source": "patent US6858630B2", "about": "“Naphthimidazole derivatives and their use as thrombopoietin mimetics” (SmithKline Beecham Corporation, priority 1999, dated 2005)", "molecular_target": "T1, TPO receptor (Homo sapiens, UniProt P40238)", "T1 construct": "expressed in transfected cells; host or cells: murine BaF3 cells", "T1 sequence (P40238 26-635)": "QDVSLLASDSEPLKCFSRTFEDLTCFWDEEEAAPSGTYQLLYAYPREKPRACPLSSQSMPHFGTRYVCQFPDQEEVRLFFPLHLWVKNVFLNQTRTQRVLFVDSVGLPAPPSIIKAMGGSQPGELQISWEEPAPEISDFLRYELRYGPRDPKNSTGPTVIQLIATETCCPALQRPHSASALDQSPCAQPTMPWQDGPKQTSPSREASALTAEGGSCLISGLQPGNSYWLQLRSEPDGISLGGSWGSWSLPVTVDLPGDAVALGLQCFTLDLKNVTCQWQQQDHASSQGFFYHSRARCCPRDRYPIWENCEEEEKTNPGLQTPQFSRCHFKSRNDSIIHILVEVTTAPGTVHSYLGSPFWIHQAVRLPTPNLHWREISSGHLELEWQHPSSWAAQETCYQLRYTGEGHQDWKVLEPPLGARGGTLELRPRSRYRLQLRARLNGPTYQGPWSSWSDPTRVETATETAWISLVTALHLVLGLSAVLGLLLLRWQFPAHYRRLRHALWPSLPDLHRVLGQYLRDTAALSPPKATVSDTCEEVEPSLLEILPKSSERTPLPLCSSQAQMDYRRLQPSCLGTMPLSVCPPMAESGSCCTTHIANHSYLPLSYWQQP", "assay": "Luciferase assay (TPO-responsive BaF3 cell line)", "type": "cell-based, murine", "settings": "at a concentration of 2 uM; control is the maximal response to TPO", "experimental": "Compounds of the present invention were tested for potency as mimetics of the TPO receptor in a Luciferase assay such as described in Lamb, et al., Nucleic Acids Research 23; 3283-3289 (1995) and Seidel, et al., Proc. Natl. Acad. Sci., USA 92: 3041-3045 (1995) by substituting a TPO-responsive BaF3 cell line (Vigon et al. Proc. Natl. Acad. Sci. USA 1992, 89, 5640-5644) for the HepG2 cells utilized therein. The murine BaF3 cells express TPO receptors and closely match the pattern of STAT (signal transducers and activators of transcription) activation observed in primary murine and human bone marrow cells."}
{"smiles": "COc1c(-c2ccc(C)cc2)cccc1-c1nc2c(ccc3cc(S(=O)(=O)O)cc(O)c32)[nH]1.Cl", "note": "[Compound 14, 2-(3-[4′-Methylphenyl]-2-methoxyphenyl)-9-hydroxy-naphth[1,2-d]imidazole-7-sulfonic acid hydrochloride]", "values": [{"measurement": "activation, % of control in the luciferase assay", "value": "about 25%"}]}
